Measured values as given in PubChem BioAssay AID651630 (Sanford-Burnham Center for Chemical Genomics, 2012).
Calls of active or inactive are those of the source.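 The calls were made as follows: active = lipid-stain IC50 at or below a set limit, with nuclear-stain toxicity IC50 at least five times higher; inactive = the rest.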

Assays:
DAPI = assay: TAG lipid buildup inhibition with viability readout – cell-based, panel, Nile Red and DAPI fluorescence, H9c2, dose response (AID 651630); conditions: H9c2 cells, DAPI nuclear fluorescence (cytotoxicity counter-readout), oleic acid;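 also: cells exposed to compound overnight before fixation and staining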
TAG = assay: as above; conditions: H9c2 cells, Nile Red TAG fluorescence, oleic acid

Row | Structure (SMILES) | IC50 cytotoxicity (DAPI nuclear signal decrease) (DAPI; mean of runs) | IC50 cytotoxicity (DAPI nuclear signal decrease) (DAPI; run 1) [µM] | IC50 cytotoxicity (DAPI nuclear signal decrease) (DAPI; run 2) [µM] | IC50 (TAG; mean of runs) | IC50 (TAG; run 1) [µM] | IC50 (TAG; run 2) [µM]
1 | COc1ccc(-c2sc3ccc(N4CCOCC4)cc3c2C#CC(C)(C)O)cc1 | > 25 µM (inactive) | > 25 | > 25 | > 25 µM (inactive) | > 25 | > 25
2 | CCCN(CCC)CCNC(=O)c1cc2c(=O)n(CC)c3ccccc3c2s1 | > 25 µM (inactive) | > 25 | > 25 | > 25 µM (inactive) | > 25 | > 25
3 | COC(=O)c1c(NC(=S)NN2CCN(C)CC2)sc2c1CCC(C)C2 (stereo not given) | 17.8 µM (inactive) | 18.5 | 17.1 |  | > 25 | 15.1
4 | COc1cc(/C=C2/NC(=O)N(Cc3ccccc3F)C2=O)ccc1O | > 25 µM (inactive) | > 25 | > 25 | > 25 µM (inactive) | > 25 | > 25
5 | CCC(C)Nc1nc(-c2cccc(OC)c2O)nc2ccccc12 (stereo not given) | > 25 µM (inactive) | > 25 | > 25 | > 25 µM (inactive) | > 25 | > 25
6 | O=C1N[C@@H](Cc2ccccc2)COC(=O)[C@@H](Cc2ccc(F)cc2)CC/C=C/C[C@@H]1CC(=O)N(CCO)Cc1ccccc1 | > 25 µM (inactive) | > 25 | > 25 | 20.4 µM (inactive) | 18.5 | 22.3
7 | COc1ccc(CC(N)c2csc(NC(=O)Nc3ccccc3-c3ccccc3)n2)cc1 (stereo not given) | 17.6 µM (inactive) | 19.3 | 15.9 |  | > 25 | 15.5
8 | Cc1ccc(-n2cc(CNCCCn3cccn3)c(-c3cccc(C)c3)n2)cc1 | > 25 µM (inactive) | > 25 | > 25 | > 25 µM (inactive) | > 25 | > 25
9 | CCOC(=O)c1cc(-c2ccccc2)sc1NC(=O)COC(=O)c1cccc(S(N)(=O)=O)c1 | > 25 µM (inactive) | > 25 | > 25 |  | > 25 | 21.4
10 | CCOCCC(=O)Nc1ccc2c(c1)c(=O)n(C)n2C/C=C/c1ccccc1 | > 25 µM (inactive) | > 25 | > 25 | > 25 µM (inactive) | > 25 | > 25
11 | Cc1cc(C)nc(NC(=NCCc2c[nH]c3ccccc23)NC(=O)Nc2ccc(Cl)c(Cl)c2)n1 | > 25 µM (inactive) | > 25 | > 25 | 10.2 µM | 8.52 | 11.8
12 | COc1cccc(C2c3cc4c(cc3OC(NNC(N)=O)C2C)OCO4)c1O (stereo not given) | > 25 µM (inactive) | > 25 | > 25 | > 25 µM (inactive) | > 25 | > 25
13 | Oc1ccc(C[C@H]2CNC(=S)N2CC2CCCN2C[C@H](Cc2ccc(O)cc2)N2C[C@H](Cc3ccc(O)cc3)N(CC3CCCCCC3)C2=S)cc1 (stereo not given in full) | > 25 µM (inactive) | > 25 | > 25 | 8.6 µM | 7.31 | 9.89
14 | CCOc1ccc(CCNC(=O)CN(C)S(=O)(=O)c2cccc3nsnc23)cc1OCC | > 25 µM (inactive) | > 25 | > 25 | 17.5 µM (inactive) | 14.2 | 20.8
15 | COc1cc(NC(=O)Nc2nc(C(N)Cc3ccc(C(F)(F)F)cc3)cs2)cc(OC)c1OC (stereo not given) |  | 24.9 | > 25 | 6.47 µM | 7.7 | 5.24
16 | COc1ccc(CN(C)C[C@@H]2OCCCC[C@H](C)Oc3ccc(NC(=O)Nc4ccc(F)cc4)cc3C(=O)N([C@H](C)CO)C[C@H]2C)cc1 | > 25 µM (inactive) | > 25 | > 25 |  | 21.8 | > 25
17 | COc1cccc(/C=C/C(=C2\C(=O)N(c3ccccc3)N=C2C)c2ccc(Br)cc2)c1OC | > 25 µM (inactive) | > 25 | > 25 | 5.18 µM | 5.94 | 4.43

Row | Structure (SMILES) | IC50 cytotoxicity (DAPI nuclear signal decrease) (DAPI; mean of runs) | IC50 cytotoxicity (DAPI nuclear signal decrease) (DAPI; run 1) [µM] | IC50 cytotoxicity (DAPI nuclear signal decrease) (DAPI; run 2) [µM] | IC50 (TAG; mean of runs) | IC50 (TAG; run 1) [µM] | IC50 (TAG; run 2) [µM]
18 | Nc1c(Cl)cc(-c2csc(N3CCCC3c3nc4cc(Cl)c(N5CCCCC5)cc4n3CCOCCO)n2)cc1Cl (stereo not given) | > 25 µM (inactive) | > 25 | > 25 | 11.4 µM | 11.6 | 11.1
19 | O=C(OCc1ccc(Br)cc1)c1cc([N+](=O)[O-])ccc1N1CCOCC1 | > 25 µM (inactive) | > 25 | > 25 | > 25 µM (inactive) | > 25 | > 25
20 | COc1cc(C#Cc2c(-c3cncn3C)n(C)c3ccc(-c4ccc(OC)c(OC)c4)cc23)cc(OC)c1 | > 25 µM (inactive) | > 25 | > 25 | 8.76 µM | 8.47 | 9.05
21 | CC(=O)c1ccc(Oc2cc(C)nc(-n3nc(C)cc3C)n2)cc1 | > 25 µM (inactive) | > 25 | > 25 | 11.5 µM | 10.4 | 12.5
22 | CC(C)(Oc1ccc(Cl)cc1)C(=O)Nc1ccc2oc(-c3ccncc3)nc2c1 | > 25 µM (inactive) | > 25 | > 25 | > 25 µM (inactive) | > 25 | > 25
23 | O=[N+]([O-])c1ccc(Nc2nc(N3CCOCC3)nc(N3CCOCC3)n2)cc1 | > 25 µM (inactive) | > 25 | > 25 | 21.4 µM (inactive) | 24.2 | 18.6
24 | CCOc1ccc(OCC)c(NC(=O)CN(c2ccc(C)cc2)S(=O)(=O)c2c(C)noc2C)c1 | > 25 µM (inactive) | > 25 | > 25 | 19.6 µM (inactive) | 17.1 | 22
25 | Cc1ccccc1OCCNc1cc(N2CC(C)NC(C)C2)ccc1[N+](=O)[O-] (stereo not given) | > 25 µM (inactive) | > 25 | > 25 | 13.1 µM | 14.6 | 11.6
26 | CC(C)C(C)(C#N)NC(=O)CSc1nc2scc(-c3ccco3)c2c(=O)n1-c1ccccc1 (stereo not given) | > 25 µM (inactive) | > 25 | > 25 | 10.5 µM | 11.4 | 9.69
27 | COc1ccc2nc3cc([N+](=O)[O-])ccc3c(NNc3ccc([N+](=O)[O-])cc3)c2c1 | > 25 µM (inactive) | > 25 | > 25 | 5.93 µM | 10.4 | 1.44
28 | COc1ccc(CC(N)c2csc(NC(=O)NCc3ccccc3)n2)cc1 (stereo not given) | > 25 µM (inactive) | > 25 | > 25 | 17.9 µM (inactive) | 20.2 | 15.5
29 | CC1(C(=O)Nc2ccc3c(c2)OCO3)Cc2c(-c3cccc(C(N)=O)c3)ccnc2O1 (stereo not given) | > 25 µM (inactive) | > 25 | > 25 |  | > 25 | 19.1
30 | COc1ccc(S(=O)(=O)N(C)C[C@@H]2OCCCC[C@H](C)Oc3ccc(NC(=O)Nc4ccc(C(F)(F)F)cc4)cc3C(=O)N([C@H](C)CO)C[C@H]2C)cc1 | > 25 µM (inactive) | > 25 | > 25 | > 25 µM (inactive) | > 25 | > 25
31 | Cc1cc(Nc2ccc(C)c(Cl)c2)nc(N2CCOCC2)n1 | > 25 µM (inactive) | > 25 | > 25 | > 25 µM (inactive) | > 25 | > 25
32 | COc1cc(Cn2c(-c3nonc3N)nc3ccccc32)ccc1C | > 25 µM (inactive) | > 25 | > 25 |  | 24.4 | > 25
33 | O=C(C[C@H]1C[C@H](C(=O)N2CCOCC2)[C@@]2(CCC3CCCC3)c3[nH]c4cc(-c5ccco5)ccc4c3CCN2C1=O)NCC12CC3CC(CC(C3)C1)C2 |  | > 25 | > 25 | 3.68 µM | 4.04 | 3.32
